Data from patent US6642215B2 (Leo Pharma A/S, priority 2001, dated 2003).

Experiments:
Assay type in all cases: cell-based, human
NF-κB [1] = test: EMSA of NF-κB DNA binding activity in nuclear extracts of LPS-stimulated THP-1 cells; settings: 1 μM compound 24 h
Procedure: EMSA: For preparation of nuclear extracts, 10^7 cells were used at each experimental point. Following treatment of the THP-1 cells with either 1 μM of compound A for 24 h and stimulation with 1 μg/ml LPS at the indicated times, the cells were washed twice in PBS, and the cells were extracted for protein. The cells were resuspended in 500 μl buffer A (20 mM HEPES (pH 7.8), 0.1 mM EDTA, 10 mM KCL) with a protease inhibitor mixture (1 mM DTT, 0.5 mM Pefablock). Afterwards, the cells were incubated on ice for 15 min, then 30 μl 10% NP 40 was added and the cells were centrifuged at 5000×g. Each cell pellet was then resuspended in 50 μl buffer B (buffer A with 400 mM NaCl) and vortexed, followed by incubation for 15 min at 4° C. and centrifugation at 5000×g for 5 min at 4° C. The supernatant from each cell pellet was collected and the protein concentration quantified using the BCA-200 protein assay kit from Pierce (Rockford, Ill., USA). The nuclear extracts were stored at −80° C.
Double-stranded κB oligos (5′-AGTTGAGGGGACTTTCCCAGGC-3′ and the complement strand) were purchased from Promega. […] After electrophoresis at 4° C., the gel was dried, and the protein-DNA complexes were visualized and quantified on the STORM 860 Phospholmager using the ImageQuaNT software (available from Molecular Dynamics).

NF-κB [2] = test: NF-κB-dependent luciferase assay in HT-1080 cells, TNF-α stimulation; settings: Homo sapiens, compound 24 h before TNF-α 50 ng/ml 6 h, mean ± SD
Procedure: (§1) The NF-κB-luciferase reporter plasmid (pBIIX) and pRL-TK control vector described in Example 1 were used for the luciferase assay,
The HT-1080 cells were seeded at a density of 3×10^4 cells/cm^2 in 6 well-plates. The following day, the cells were co-transfected with construct DNA and pRL-TK vector using FuGene Transfection Reagent. A mixture of 10 μl Fugene and 90 μl serum free medium (per well) was prepared and Incubated for 5 min at room temperature. Then, this mixture was transferred to a mixture of construct DNA (1.25 μg per well) and pRL-TK vector (0.25 μg per well), gently mixed, incubated for 15 min at room temperature and added to the cells. The cells were treated at 37° C. with compound A (10^−12−10^−5 M) or DMSO for 24 h before stimulation with TNF-α (50 ng/ml) for 6 h.
(§2) The cell lysate was assayed for luciferase activity using the Dual luciferase kit as described by the manufacturer (Promega). All transfections were performed in triplicate. Firefly luciferase activity was corrected for differences in transfection efficiency by normalizing it to the measured Renilla luciferase activity.
(§3) NF-κB activity was measured by the luciferase assay described in Example 1.

NF-κB [3] = test: NF-κB-dependent luciferase assay in PC-3 cells, TNF-α stimulation; settings: compound 24 h before TNF-α 50 ng/ml 6 h
Procedure: as §1
The PC-3 cells were seeded at a density of 3×10^4 cells/cm^2 in 6 well-plates. The following day, the cells were co-transfected with construct DNA and pRL-TK vector using DOTAP liposomal transfection reagent (Boehringer Mannheim). The construct DNA (4.0 μg per well), the pRL-TK vector (1.0 μg per well), DOTAP (16.7 μl per well) and dH2O (total volume 100 μl per well) were carefully mixed and incubated for 15 min at 37° C. A growth medium without serum (900 μl per well) was added and the transfection mixture (1 ml per well) was added to the cells. After 4 h at 37° C., a growth medium with 20% FBS (1 ml per well) was added. The cells were treated at 37° C. with compound A (10^−12−10^−5 M) or DMSO for 24 h before stimulation with TNF-α (50 ng/ml) for 6 h.
as §2, §3

N#CNC(=Nc1ccncc1)NCCCCCCOc1ccc(Cl)cc1 [compound A, N-(6-(4-chlorophenoxy)hexyl)-N′-cyano-N″-(4-pyridyl)guanidine]
NF-κB DNA-binding activity suppressed compared to the control (NF-κB [1]; after 0.5 to 4 h of LPS-stimulation): 2 fold
NF-κB DNA-binding activity suppressed compared to the control (NF-κB [1]; after 24 h of LPS-stimulation): 5 fold
IC50 (NF-κB [2]): 2480 ± 775 nM
NF-κB activity (IC50 nM) (NF-κB [3]): no inhibition
